US8716247B2, “Peptides effective in the treatment of tumors and other conditions requiring the removal or destruction of cells” (Nymox Corporation, priority 2006, dated 2014)
Where no end group is shown, it is not given here.

Tested on: prostate
Test: Intraprostatic infusion of S05A Peptides in rats: histological changes of cell death and prostate volume
Type: in vivo, Male Sprague-Dawley rats
Design: key to Histological Changes of Cell Death at 24 Hours / Histological Changes of Cell Death at 72 Hours: −: Absent; +: Present, Minimal; ++: Present, Moderate; +++: Present, Moderate and Diffuse; ++++: Present, Diffuse and Extensive
Conditions: for Calculated Mean Volume 24 Hours / Calculated Mean Volume 72 Hours / Calculated Mean Volume 7 Days: rat prostate volume from mean cross-sectional diameters, V=4/3π(D/2)^3; for Calculated Mean Volume 24 Hours / Calculated Mean Volume 72 Hours / Calculated Mean Volume 7 Days / Calculated Mean Volume Overall: 1.0 mg/kg intraprostatic; for Calculated Mean Volume Overall: rat prostate volume, overall across 24 hours, 72 hours and 7 days; for Histological Changes of Cell Death at 24 Hours / Histological Changes of Cell Death at 72 Hours: rat prostate, intraprostatic infusion 300 μl of 1 mg/mL in PBS pH 7.4 (1.0 mg/kg), H & E sections; for histological findings in prostate of treated rats: rat prostate after intraprostatic infusion, 1.0 mg/kg
Procedure: The purpose of this example was to determine the effect of S05A Peptides on tissue at sites of injection.
Male Sprague-Dawley rats (300 gram weight range) were anesthetized with ether and given one of the above S05A Peptides by intraprostatic infusion, a control injection of normal saline or no injection after open surgical visualization of the prostate. The injections consisted of 300 μl of the S05A Peptide 1 mg/mL in PBS pH 7.4. (1.0 mg/kg) (n=36). Rats were painlessly sacrificed after 24 hours (n=12), 72 hours (n=12) and 7 days (n=12). Prostate glands were dissected, fixed in 10% buffered formalin for 24 hours, embedded in paraffin, sectioned, and stained with H & E. For each animal the entire prostate gland was embedded and sectioned. All stained sections were examined histologically and measured. For each prostate at least […] histological sections were examined, and for each histological section two cross-sectional diameters (D) at 90° from each other were measured (total of ≧8 measurements per prostate). The mean of the cross-sectional diameters (D) for each group was used to estimate volume according to V=4/3π(D/2)^3 and the mean volume calculated for each group. Histological changes were assessed on the following scale:
+++ Present, Moderate and Diffuse
++++ Present, Diffuse and Extensive

Row | Substance | Calculated Mean Volume 24 Hours [mm^3] | Calculated Mean Volume 72 Hours [mm^3] | Calculated Mean Volume 7 Days [mm^3] | Calculated Mean Volume Overall [mm^3] | Histological Changes of Cell Death at 24 Hours | Histological Changes of Cell Death at 72 Hours | histological findings in prostate of treated rats
1 | VLSRIK [S05A-4] | 357 | 408 | 333 | 366 | + | + | –
2 | RIKLEIK [S05A-5] | 249 | 408 | 392 | 350 | + | + | –
3 | KLEIKRCL [S05A-3] | 249 | 435 | 463 | 382 | + | + | –
4 | IDQQVLSRIKLEI [S05A-7] | 180 | 165 | 357 | 234 | ++++ | ++++ | extensive cell death, necrosis, loss of glandular epithelium and atrophy
5 | IDQQVLSRI [S05A-2] | 180 | 249 | 165 | 198 | ++++ | ++++ | extensive cell death, necrosis, loss of glandular epithelium and atrophy
6 | VLSRIKLEIKRCL [S05A-6] | 310 | 493 | 408 | 404 | + | + | –
